Several values for one entry are separate records, joined by “and”; a condition that tells them apart may be missing. Identical values can stand only once.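 Exposure lasted 48 hours, with cells grown in 96-well plates and compounds tested at five concentrations. GI50 marks 50% less growth. The concentration for full growth arrest is given as TGI.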

Our source for the TGI and GI50 values is PubChem BioAssay (NCI).

Some test systems named below: HCT-15 colon; HS 578T breast; IGROV1 ovarian; KM12 colon; OVCAR-5 ovarian; PC-3 prostate; RPMI-8226 leukemia; SF-295 CNS; SR leukemia; T-47D breast.
Common to all, as to assay: NCI tumour cell line growth inhibition, 48 h

Turning to `N#CC(C#N)=CNCCN1CCN(C=C(C#N)C#N)CC1`, the TGI in the assay on HCT-15 colon, in the assay with HS 578T breast, in the assay on IGROV1 ovarian, in the assay with KM12 colon, in the assay on OVCAR-5 ovarian and with PC-3 prostate was over 100 µM in each case. Besides, the TGI with RPMI-8226 leukemia, in the assay with SF-295 CNS, with SR leukemia and in the assay with T-47D breast was over 100 µM in each case.

As for `N#Cc1c(NCc2ccccc2)nc(NCc2ccccc2)c(C#N)c1-c1ccc(Cl)cc1`, the GI50 in the assay on HCT-15 colon is over 100 µM; in the assay with HS 578T breast, > 50 µM and 37.8 µM; in the assay with IGROV1 ovarian it was > 50 µM and 37.1 µM; with KM12 colon, > 50 µM and 85.8 µM; in the assay with OVCAR-5 ovarian, > 50 µM and 77.3 µM; with PC-3 prostate, > 50 µM and 61.2 µM. The GI50 with RPMI-8226 leukemia was > 50 µM and 50.3 µM; in the assay with SF-295 CNS, > 50 µM and 36 µM; in the assay on SR leukemia, > 50 µM and 19.7 µM; in the assay on T-47D breast, over 100 µM. Further, the TGI with HCT-15 colon was over 100 µM; in the assay with HS 578T breast it was > 50 µM and 86.6 µM; in the assay on IGROV1 ovarian it was over 100 µM; in the assay on KM12 colon, over 100 µM; in the assay with OVCAR-5 ovarian, over 100 µM; in the assay with PC-3 prostate, over 100 µM. The TGI with RPMI-8226 leukemia was over 100 µM; with SF-295 CNS it was over 100 µM; in the assay on SR leukemia it was > 50 µM and 58.5 µM; in the assay on T-47D breast, over 100 µM.

Regarding `COC(=O)c1ccc2nc(-c3cc4ccccc4n3C)n(CCCCOc3cc4c(cc3OC)C(=O)N3CCC[C@H]3C=N4)c2c1`, the GI50 with HCT-15 colon is 2.41 µM; in the assay with HS 578T breast it was 0.276 µM; with IGROV1 ovarian it was 0.254 µM; in the assay with KM12 colon, 0.255 µM; in the assay with OVCAR-5 ovarian it was 0.811 µM; in the assay with PC-3 prostate, 0.457 µM. Further, the GI50 with RPMI-8226 leukemia was 0.345 µM; in the assay on SF-295 CNS it was 0.667 µM; with SR leukemia it was 0.643 µM; in the assay on T-47D breast it was 0.751 µM. The TGI with HCT-15 colon was 8.94 µM; in the assay on HS 578T breast it was 1.42 µM; in the assay on IGROV1 ovarian, 0.889 µM; with KM12 colon, 0.787 µM; in the assay with OVCAR-5 ovarian, 2.06 µM; in the assay with PC-3 prostate, 10.3 µM. Further, the TGI in the assay on RPMI-8226 leukemia is over 100 µM; in the assay on SF-295 CNS, 4.85 µM; in the assay on SR leukemia, over 100 µM; with T-47D breast it was 3.51 µM.

On to `COC(=O)c1cc(NC(=O)c2cc(NC(=O)c3cc([N+](=O)[O-])n(C)c3)cn2C)cn1C`, for which the GI50 with HCT-15 colon is 44.8 µM; in the assay on HS 578T breast, over 100 µM; in the assay with IGROV1 ovarian, over 100 µM; with KM12 colon, 80.8 µM; in the assay with OVCAR-5 ovarian it was 30.9 µM; in the assay on PC-3 prostate, over 100 µM. Also, the GI50 in the assay with RPMI-8226 leukemia was over 100 µM; in the assay with SF-295 CNS, 32.8 µM; with SR leukemia it was 39.3 µM; with T-47D breast, over 100 µM. The TGI in the assay on HCT-15 colon, in the assay on HS 578T breast, in the assay with IGROV1 ovarian, in the assay with KM12 colon, in the assay on OVCAR-5 ovarian and in the assay on PC-3 prostate was over 100 µM throughout. The TGI in the assay with RPMI-8226 leukemia, in the assay with SF-295 CNS, in the assay with SR leukemia and in the assay with T-47D breast was over 100 µM in each case.

In the case of `C[C@H](c1ccc(F)cc1CCCC(=O)O)N(c1cc(F)ccc1F)S(=O)(=O)c1ccc(Cl)cc1`, the GI50 with HCT-15 colon was 22.3 µM; in the assay on HS 578T breast, 20 µM; with IGROV1 ovarian, 31.7 µM; in the assay with KM12 colon, 26.5 µM; with OVCAR-5 ovarian it was 43.8 µM; in the assay on PC-3 prostate it was 26.5 µM. The GI50 in the assay on RPMI-8226 leukemia is 30 µM; with SF-295 CNS, 23.1 µM; with SR leukemia it was 30.4 µM; in the assay on T-47D breast it was 19.2 µM. Also, the TGI was 74.7 µM with HCT-15 colon; over 85 µM with HS 578T breast; over 92.4 µM in the assay on IGROV1 ovarian; over 100 µM with KM12 colon; over 100 µM with OVCAR-5 ovarian; over 100 µM in the assay on PC-3 prostate. In addition, the TGI with RPMI-8226 leukemia was over 88.5 µM; in the assay with SF-295 CNS, over 75.9 µM; in the assay on SR leukemia, 98.1 µM; with T-47D breast, over 83.9 µM.

On to `C[C@@H](N)COc1ccc(-c2cnc3ccc(N[C@H](C)c4cccc(F)c4)nn23)cc1`, for which the GI50 with HCT-15 colon is 2.32 µM; with HS 578T breast, 1.61 µM; with IGROV1 ovarian, 2.18 µM; in the assay on OVCAR-5 ovarian, 1.38 µM; in the assay with PC-3 prostate it was 1.62 µM; with RPMI-8226 leukemia, 1.81 µM. Further, the GI50 in the assay on SF-295 CNS is 1.8 µM; with SR leukemia, 0.0715 µM; with T-47D breast, 1.5 µM. For the same compound, the TGI was found to be 10.1 µM in the assay with HCT-15 colon; 3.82 µM in the assay on HS 578T breast; 6.23 µM in the assay on IGROV1 ovarian; 1.5 µM in the assay on KM12 colon; 4.54 µM with OVCAR-5 ovarian; 9.39 µM in the assay with PC-3 prostate. The TGI in the assay on RPMI-8226 leukemia is 5.3 µM; in the assay with SF-295 CNS, 4.01 µM; with SR leukemia, 1.8 µM; with T-47D breast, 3.35 µM.

On to `O=C1Nc2ccccc2/C1=C\c1c(-c2ccccc2)nc2sccn12`, for which the GI50 in the assay on HCT-15 colon is 1.08 µM; with HS 578T breast, 5.58 µM; in the assay on IGROV1 ovarian it was 1.98 µM; with KM12 colon it was 0.833 µM; in the assay on OVCAR-5 ovarian, 2.7 µM; in the assay with PC-3 prostate, 1.95 µM. For the same compound, the GI50 in the assay on RPMI-8226 leukemia is 0.909 µM; in the assay with SF-295 CNS it was 0.797 µM; in the assay with SR leukemia it was 0.309 µM; with T-47D breast it was 2.65 µM. In addition, the TGI was 8.39 µM in the assay on HCT-15 colon; 18.7 µM in the assay on HS 578T breast; over 54.2 µM in the assay with IGROV1 ovarian; 20.1 µM in the assay with KM12 colon; 11.9 µM in the assay with OVCAR-5 ovarian; 17.4 µM in the assay with PC-3 prostate. Besides, the TGI was 3.74 µM in the assay on RPMI-8226 leukemia, 3.24 µM in the assay with SF-295 CNS, 0.976 µM in the assay on SR leukemia and over 33 µM in the assay on T-47D breast.

In the case of `COC(=O)C12CCC(C)(C)CC1C1=CCC3C4(C)CC(O)C(O)C(C)(C(=O)OC)C4CCC3(C)C1(CO)CC2` (centres undefined), the TGI in the assay with HCT-15 colon came to 29.1 µM; in the assay on HS 578T breast, 28.2 µM; with IGROV1 ovarian, 35.2 µM; with KM12 colon, 22.3 µM; with OVCAR-5 ovarian, 31.8 µM; in the assay with PC-3 prostate it was 22 µM. For the same compound, the TGI in the assay with RPMI-8226 leukemia turned out to be 40.9 µM; with SF-295 CNS, 28.8 µM; in the assay on SR leukemia it was 31.4 µM; in the assay with T-47D breast it was 24 µM.
